According to US20160129033A1, “COMBINATION OF RO5503781 AND CAPECITABINE FOR CANCER THERAPY” (HOFFMANN-LA ROCHE INC., priority 2013, published 2016):

Tested on: LoVo cell line
Test: Tumor growth inhibition and survival (ILS) in mice implanted with LoVo cell line
Type: in vivo
Excerpt: The LoVo cell line was selected for implantation in mice as it is a p53 wildtype cell line that lacks MDM2 amplification or overexpression and therefore is felt to be more reflective of clinical reality of the colorectal cancer patient population of interest.
The following treatment groups were used in the study
Efficacy data was graphically represented as the mean tumor volume±standard error of the mean (SEM). In addition, tumor volumes of treated groups were presented as percentages of tumor volumes of the control groups (% T/C), using the formula: 100×((T-T0)/(C-C0)), where T represented mean tumor volume of a treated group on a specific day during the experiment, T0 represented mean tumor volume of the same treated group on the first day of treatment; C represented mean tumor volume of a control group on the specific day during the experiment, and C0 represented mean tumor volume of the same treated group on the first day of treatment.
Tumor volume (in cubic millimeters) was calculated using the ellipsoid formula: (D×(d^2))/2, where “D” represents the large diameter of the tumor and “d” represents the small diameter. In some cases, tumor regression and/or percent change in tumor volume was calculated using the formula: ((T-T0)/T0)×100, where ‘T’ represents mean tumor volume of the treated group at a particular day, and ‘T0’ represents mean tumor volume of the same treated group at initiation of treatment.
Statistical analysis was determined by the rank sum test and One Way Anova and a post-hoc Bonferroni t-test (SigmaStat, version 2.0, Jandel Scientific, San Francisco, Calif., USA). Differences between groups were considered to be significant when the probability value (p) was ≦0.05.
For survival assessment, the percent of increased life space (ILS) was calculated as: 100×[(median survival day of treated group−median survival day of control group)/median survival day of control group]. Median survival was determined utilizing Kaplan Meier survival analysis. Survival in treated groups was statistically compared with the vehicle group and survival comparisons were done between groups using the log-rank test (Graph Pad Prism, La Jolla, Calif., USA). Differences between groups were considered significant when the probability value (p) was ≦0.05.

[1] = Capecitabine 200 mg/kg qd × 14 po
[2] = Capecitabine 400 mg/kg qd × 14 po

Row | SMILES | % Increased Life Span (ILS) [1] | Mean Tumor Volume [1] | % Inhibition (EOS) (TGI) [1] | % T/C (EOS) [1] | % Increased Life Span (ILS) [2] | Mean Tumor Volume [2] | % Inhibition (EOS) (TGI) [2] | % T/C (EOS) [2] | % Increased Life Span (ILS) (Cpd. A 80 mg/kg qd × 5 po) | Mean Tumor Volume (Cpd. A 80 mg/kg qd × 5 po) | % Inhibition (EOS) (TGI) (Cpd. A 80 mg/kg qd × 5 po) | % T/C (EOS) (Cpd. A 80 mg/kg qd × 5 po) | % Increased Life Span (ILS) (Cpd. A 100 mg/kg qweekly×3 po) | Mean Tumor Volume (Cpd. A 100 mg/kg qweekly×3 po) | % Inhibition (EOS) (TGI) (Cpd. A 100 mg/kg qweekly×3 po) | % T/C (EOS) (Cpd. A 100 mg/kg qweekly×3 po)
1 | CCCCCOC(=O)Nc1nc(=O)n([C@@H]2O[C@H](C)[C@@H](O)[C@H]2O)cc1F [Capecitabine, 5′-deoxy-5-fluoro-N-[(pentyloxy)-carbonyl]-cytidine] | 40% | 130.14 cubic millimeters | 72% | 28% | 49% | 130.66 cubic millimeters | 88% | 12% |  |  |  |  |  |  |  | 
2 | COc1cc(C(=O)O)ccc1NC(=O)[C@@H]1N[C@@H](CC(C)(C)C)[C@](C#N)(c2ccc(Cl)cc2F)[C@H]1c1cccc(Cl)c1F [Compound A, 4-{[(2R,3S,4R,5S)-4-(4-Chloro-2-fluoro-phenyl)-3-(3-chloro-2-fluoro-phenyl)-4-cyano-5-(2,2-dimethyl-propyl)-pyrrolidine-2-carbonyl]-amino}-3-methoxy-benzoic acid] |  |  |  |  |  |  |  |  | 23% | 130.39 cubic millimeters | 62% | 38% | 17% | 130.11 cubic millimeters | 55% | 45%
